Counter-ions that a name gives are not always drawn.

The first series is described as follows: in vitro. Particulars: PAMPA, PAMPA-BBB Pe.
In the case of `CC[C@H](C)C(=O)O[C@H]1CCC=C2C=C[C@H](C)[C@H](CC[C@@H]3C[C@@H](O)CC(=O)O3)[C@H]21` [MEVASTATIN], the Papp turned out to be 14 ×10⁻⁶ cm/s.

The series is the same for the next values; noted with them: PAMPA, PAMPA-BBB Pe(10^-6 cm/sec).
Regarding `CC(=O)OCC(=O)[C@@]1(O)CC[C@H]2[C@@H]3CCC4=CC(=O)CC[C@]4(C)[C@H]3[C@@H](O)C[C@@]21C` [HYDROCORTISONE ACETATE], the Papp is less than 1 ×10⁻⁶ cm/s. As for `Oc1ccc(O)cc1` [HYDROQUINONE], the Papp was less than 1 ×10⁻⁶ cm/s. The compound `Nc1nc(=O)[nH]c2c1ncn2[C@@H]1O[C@H](CO)[C@@H](O)[C@H]1O` [ISOGUANOSINE] yielded a Papp of less than 1 ×10⁻⁶ cm/s.

For `CC1=C(/C=C/C(C)=C/C=C/C(C)=C\C(=O)O)C(C)(C)CCC1` [ISOTRETINOIN], the Papp was determined as 8.7 ×10⁻⁶ cm/s. On the same count and under the same terms, next, `Oc1cc(O)c2c(c1)O[C@H](c1ccc(O)c(O)c1)[C@H](O)C2` [L-EPICATECHIN]: less than 1 ×10⁻⁶ cm/s; `CN1c2c(nc(N)[nH]c2=O)NC[C@@H]1CNc1ccc(C(=O)N[C@@H](CCC(=O)O)C(=O)O)cc1` [LEVOMEFOLATE]: less than 1 ×10⁻⁶ cm/s; `C[C@H]1C[C@H]2[C@@H]3CCC4=CC(=O)C=C[C@]4(C)[C@H]3C(=O)C[C@]2(C)[C@@]1(O)C(=O)CO` [MEPREDNISONE]: 3.7 ×10⁻⁶ cm/s.

Staying with this series, now noted: PAMPA, PAMPA-BBB Pe(10^-6 cm/sec), Table S3: compounds exhibiting low PAMPA-BBB permeability.
`O=c1cc(O)cc(/C=C/c2ccc(O)c(O)c2)o1` [HISPIDIN] gave a Papp of less than 1 ×10⁻⁶ cm/s. Take `C/C=C1\[C@H]2C=C(C)C[C@]1(N)c1ccc(=O)[nH]c1C2` [HUPERZINE A]: the Papp worked out at 8.1 ×10⁻⁶ cm/s. The compound `O=C(O)Cc1c[nH]c2ccc(O)cc12` [HYDROXYIN[…]] returned a Papp of less than 1 ×10⁻⁶ cm/s. For the compound `Cc1cccc(C(=O)O)c1O` [HYDROXYTOLUIC ACID], the Papp is less than 1 ×10⁻⁶ cm/s. `Cc1cc(=O)oc2cc(O)ccc12` [HYMECROMONE] gave a Papp of 9.9 ×10⁻⁶ cm/s. In turn, `Cc1cc(O)c2c(=O)c3c(O)cc(O)c4c5c(O)cc(O)c6c(=O)c7c(O)cc(C)c8c1c2c(c34)c(c78)c65` [HYPERICIN] yielded a Papp of 6.4 ×10⁻⁶ cm/s. In the case of `O=c1c(O[C@@H]2O[C@H](CO)[C@H](O)[C@H](O)[C@H]2O)c(-c2ccc(O)c(O)c2)oc2cc(O)cc(O)c12` [HYPEROSIDE], the Papp is 1.6 ×10⁻⁶ cm/s. Still for that read-out and setting: next, `CSCCCN=C=S` [IBERVERIN]: 9.7 ×10⁻⁶ cm/s; `CC/C=C\C/C=C\C/C=C\C/C=C\C/C=C\CCCC(=O)OCC` [ICOSAPENT ETHYL]: less than 1 ×10⁻⁶ cm/s. Still for that read-out and setting: under `O=C(O)CCCc1c[nH]c2ccccc12` [IND[…]] stands less than 1 ×10⁻⁶ cm/s. `COc1cc(-c2coc3cc(O[C@@H]4O[C@H](CO)[C@@H](O)[C@H](O)[C@H]4O)c(OC)c(O)c3c2=O)cc(O)c1OC` [IRIDIN] showed a Papp of 1.3 ×10⁻⁶ cm/s. On the same count and under the same terms, next, `COC(=O)/C=C/C(C)=C/C=C/C(C)=C/C=C/C=C(C)/C=C/C=C(C)/C=C/C(=O)O` [ISOBIXIN]: 4.2 ×10⁻⁶ cm/s; `CC/C=C\CC1=C(C)CCC1=O` [JASMONE]: less than 1 ×10⁻⁶ cm/s; `O=C1C=CC(=O)c2c(O)cccc21` [JUGLONE]: 4.1 ×10⁻⁶ cm/s. The same measure, in the same setting: under `C[C@@]12C=Cc3occc3[C@H]1CC[C@@]13C[C@@H](CC[C@H]12)[C@@](O)(CO)C3` [KAHWEOL] stands less than 1 ×10⁻⁶ cm/s; under `C[C@H]1O[C@H](O[C@H]2[C@H](O)[C@@H](O)[C@@H](O)[C@H](O)[C@@H]2O)[C@@H](N)C[C@@H]1NC(=N)C(=O)O` [KASUGAMYCIN HYDROCHLORIDE], less than 1 ×10⁻⁶ cm/s; under `C[C@@H]1CC[C@]2(C)CC[C@]3(C)C(=CC(=O)C4[C@@]5(C)CC[C@@H](O)[C@](C)(C(=O)O)C5CC[C@]43C)C2[C@H]1C` (stereo partly drawn) [KETO-B-BOSWELLIC ACID], less than 1 ×10⁻⁶ cm/s.

As to `c1coc(CNc2ncnc3[nH]cnc23)c1` [KINETIN], the Papp worked out at 4 ×10⁻⁶ cm/s. Still for that read-out and setting: under `NCCC(=O)c1ccccc1N` [KYNURAMINE] stands 2.4 ×10⁻⁶ cm/s. Still for that read-out and setting: next, `O=c1cc(-c2ccc(O)cc2)oc2cc(O)ccc12` [K[…]]: 2.9 ×10⁻⁶ cm/s.

Take `N[C@@H](Cc1cc(I)c(O)c(I)c1)C(=O)O` [L-DIIODOTYROSINE]: the Papp was less than 1 ×10⁻⁶ cm/s.

`COc1cc2c(cc1O)C[C@@H]1NCCc3cc(OC)c(OC)c-2c31` [LAUROTETANINE] gave a Papp of less than 1 ×10⁻⁶ cm/s.

In turn, `Cc1cc(OC(=O)c2c(C)cc(O)cc2O)cc(O)c1C(=O)O` [LECANORIC ACID] yielded a Papp of less than 1 ×10⁻⁶ cm/s. Take `O=C1C[C@@H](c2ccc(O[C@@H]3O[C@H](CO)[C@@H](O)[C@H](O)[C@H]3O)cc2)Oc2cc(O)ccc21` [LIQUIRITIN]: the Papp is less than 1 ×10⁻⁶ cm/s.

The compound `O=C(/C=C/c1ccc(O)c2c1[C@H](C(=O)O)[C@@H](c1ccc(O)c(O)c1)O2)O[C@H](Cc1ccc(O)c(O)c1)C(=O)O` [LITHOSPERMIC ACID A] showed a Papp of less than 1 ×10⁻⁶ cm/s. `COC(=O)C1=CO[C@@H](O[C@@H]2O[C@H](CO)[C@@H](O)[C@H](O)[C@H]2O)[C@@H]2[C@@H](C)[C@@H](O)C[C@H]12` [LOGANIN] had a Papp of less than 1 ×10⁻⁶ cm/s. The same measure, in the same setting: under `COC(=O)c1ccc(O)c2nc3c(C=O)c(O)cc(O)c3nc12` [LOMOFUNGIN] stands 5.1 ×10⁻⁶ cm/s; under `O=c1cc(-c2ccc(O)c(O)c2)oc2cc(O)cc(O)c12` [LUTEOLIN], 2.2 ×10⁻⁶ cm/s. Take `CC(C)=CCC/C(C)=C/C=C/C(C)=C/C=C/C(C)=C/C=C/C=C(C)/C=C/C=C(C)/C=C/C=C(\C)CCC=C(C)C` [LYCOPENE]: the Papp was less than 1 ×10⁻⁶ cm/s. The same measure, in the same setting: next, `O=C(O)c1cc(N(Cc2ccccc2O)Cc2ccccc2O)ccc1O` [L[…]]: 5.9 ×10⁻⁶ cm/s; `COc1cc(-c2[o+]c3cc(O)cc(O)c3cc2O)cc(OC)c1O` [MALVIDIN]: 1 ×10⁻⁶ cm/s. The same measure, in the same setting: next, `O=c1c2cc(O)c(O)cc2oc2cc(O)c([C@@H]3O[C@H](CO)[C@@H](O)[C@H](O)[C@H]3O)c(O)c12` [MANGIFERIN]: less than 1 ×10⁻⁶ cm/s. Same read-out and setting: under `CC1=C(CC/C(C)=C/CCC2=CC[C@H](C3=CC(=O)O[C@H]3O)O[C@H]2O)C(C)(C)CCC1` [MANOALIDE] stands less than 1 ×10⁻⁶ cm/s; under `O=C(/C=C/c1ccc(O)c(O)c1)c1ccc(O[C@@H]2O[C@H](CO)[C@@H](O)[C@H](O)[C@H]2O)c(O)c1O` [MAREIN¦], 1.6 ×10⁻⁶ cm/s; under `COc1ccc2[nH]cc(CCNC(C)=O)c2c1` [MELATONIN], 2.8 ×10⁻⁶ cm/s. For the compound `CNCC(O)c1ccc(O)c(OC)c1` (stereo not drawn) [METANEPHRINE HYDROCHLORIDE], the Papp was less than 1 ×10⁻⁶ cm/s. For `CSC[C@H]1O[C@@H](n2cnc3c(N)ncnc32)[C@H](O)[C@@H]1O` [METHYLTHIOADENOSINE], the Papp was less than 1 ×10⁻⁶ cm/s. `COc1cc(OC)c(C(C)=O)c(O)c1C` [METHYLXANTHOXYLINE]: the Papp was less than 1 ×10⁻⁶ cm/s.

The compound `CC=C1C[N+]2(C)CC[C@@]34C(=C(C=O)[C@H]1C[C@@H]32)Nc1ccccc14` (stereo partly drawn) [METVINE] returned a Papp of less than 1 ×10⁻⁶ cm/s. In turn, `CC[C@H]1O[C@]2(CC[C@@H]1C)C[C@@H]1C[C@@H](CC=C(C)C[C@@H](C)C=CC=C3CO[C@@H]4[C@H](O)C(C)=C[C@@H](C(=O)O1)[C@]34O)O2` [MILBEMYCIN A4] gave a Papp of 9.9 ×10⁻⁶ cm/s.

Staying with this series, now noted: PAMPA, PAMPA-BBB Pe, Table S2: compounds exhibiting moderate to high PAMPA-BBB permeability.
For `C=C[C@H]1CN2CCc3c([nH]c4ccccc34)[C@H]2C[C@@H]1/C(=C\OC)C(=O)OC` [HIRSUTEINE], the Papp stood at 118 ×10⁻⁶ cm/s. Same read-out and setting: under `COc1c2c(cc3c1OCO3)CCN(C)C2` [HYDROCOTARNINE HYDROBROMIDE] stands 35 ×10⁻⁶ cm/s; under `CC[C@H]1CN2CC[C@H]1C[C@@H]2[C@@H](O)c1ccnc2ccc(OC)cc12` [HYDROQUINIDINE HYDROCHLORIDE], 37 ×10⁻⁶ cm/s. On the same count and under the same terms, under `CC(=O)[C@@]1(O)CC[C@H]2[C@@H]3CCC4=CC(=O)CC[C@]4(C)[C@H]3CC[C@@]21C` [HYDROXYPROGESTERONE] stands 110 ×10⁻⁶ cm/s; under `O=C(/C=C/c1ccccc1)NCCO` [IDROCILAMIDE], 211 ×10⁻⁶ cm/s; under `Oc1ccc(C2=Cc3ccc(O)cc3OC2)cc1` [IDRONOXIL], 145 ×10⁻⁶ cm/s. Same read-out and setting: next, `OCc1c[nH]c2ccccc12` [INDOLE-3-CARBINOL]: 94 ×10⁻⁶ cm/s; `COc1cc2c(cc1O)C[C@H]1c3c(cc(OC)c(O)c3-2)CCN1C` [ISOBOLDINE]: 35 ×10⁻⁶ cm/s. The compound `COc1ccc2c(c1O)-c1c(OC)c(OC)cc3c1[C@H](C2)N(C)CC3` [ISOCORYDINE] had a Papp of 74 ×10⁻⁶ cm/s. Compound `C=C[C@H]1CN2CC[C@@]3(C(=O)Nc4ccccc43)[C@@H]2C[C@@H]1/C(=C\OC)C(=O)OC` [ISOCORYNOXEINE] returned a Papp of 37 ×10⁻⁶ cm/s. `CC1(C)C2=CCCC(C)(C)[C@]23CC[C@H]1C3` [ISOLONGIFOLENE] came in with a Papp of 87 ×10⁻⁶ cm/s. Consider `c1ccc2cnccc2c1` [ISOQUINOLINE], for which the Papp was 157 ×10⁻⁶ cm/s. Still for that read-out and setting: under `COc1cc(-c2oc3cc(O)cc(O)c3c(=O)c2O)ccc1O` [ISORHAMNETIN] stands 528 ×10⁻⁶ cm/s; under `COC1=CC(=O)O[C@@H](/C=C/c2ccccc2)C1` [KAWAIN], 114 ×10⁻⁶ cm/s; under `CC(C)=CCC[C@@H](C)[C@H]1CC[C@@]2(C)C3=C(CC[C@]12C)[C@@]1(C)CC[C@H](O)C(C)(C)[C@@H]1CC3` [LANOSTEROL], 13 ×10⁻⁶ cm/s.

Regarding `CC1=CC(=O)C2=C(C)CC[C@@H]3[C@H](OC(=O)[C@H]3C)[C@@H]12` [LEUKOMISIN], the apparent permeability coefficient (Papp) turned out to be 57 ×10⁻⁶ cm/s. As to `N[C@@H](Cc1cc(I)c(Oc2cc(I)c(O)c(I)c2)c(I)c1)C(=O)O` [LEVOTHYROXINE], the Papp amounted to 83 ×10⁻⁶ cm/s.

As to `COc1cc(OC)c2ccc(=O)oc2c1` [LIMETTIN], the Papp was determined as 105 ×10⁻⁶ cm/s.

As to `CN1C[C@H](CO)C=C2c3cccc4[nH]cc(c34)C[C@H]21` [LYSERGOL], the Papp was 51 ×10⁻⁶ cm/s. Same read-out and setting: next, `CC(C)c1cccc(O)c1` [M-ISOPROPYLPHENOL]: 149 ×10⁻⁶ cm/s; `CCCC[C@@H](C)/C=C(C)/C=C(\C)C(=O)NC1=C[C@@](O)(/C=C/C=C/C=C/C(=O)NC2=C(O)CCC2=O)[C@@H]2O[C@@H]2C1=O` [MANUMYCIN A]: 64 ×10⁻⁶ cm/s; `CC(=O)[C@H]1CC[C@H]2[C@@H]3C[C@H](C)C4=CC(=O)CC[C@]4(C)[C@H]3[C@@H](O)C[C@]12C` [MEDRYSONE]: 72 ×10⁻⁶ cm/s. Regarding `COC(=O)c1ccc(OC)cc1` [METHYL ANISATE], the Papp stood at 103 ×10⁻⁶ cm/s. The same measure, in the same setting: next, `COC(=O)C=Cc1ccccc1` [METHYL CINNAMATE]: 98 ×10⁻⁶ cm/s; `COC(=O)c1ccccc1OC` [METHYL O-ANISATE]: 120 ×10⁻⁶ cm/s. `CC(=O)c1ccc[nH]1` [METHYL PYRROL-2-YL KETONE]: the Papp is 28 ×10⁻⁶ cm/s. On the same count and under the same terms, under `COC1=CC(=O)O[C@@H](/C=C/c2ccc3c(c2)OCO3)C1` [METHYSTICIN] stands 104 ×10⁻⁶ cm/s.

Values taken from PMC11876671, “Investigating blood–brain barrier penetration and neurotoxicity of natural products for central nervous system drug development” (Scientific Reports, 2025).
